Test results taken from PubChem BioAssay AID463100 (The Scripps Research Institute Molecular Screening Center, 2010).

Tested on: VIM-2-transformed E. coli growth with imipenem, MIC
Experiment: MIC of VIM-2 E. coli under carbapenem – VIM-2-transformed E. coli, imipenem co-treatment, counter-screen for IMP-1 and VIM-2 inhibitor project, late-stage follow-up (AID 463100)

Row | SMILES | MIC [µM]
1 | O=C(O)c1cc[c]([Hg][Cl])cc1 | 9.37
2 | CC(=O)Nc1cc[c]([Hg+])cc1 | 2.5
3 | [Hg+][c]1ccccc1 | 0.625
4 | Cc1cc[c]([Hg+])cc1 | 0.651
5 | COc1cccc[c]1[Hg+] | 0.781
6 | O=C(O)c1ccc[c]([Hg+])c1 | 2.08
